Measured values taken from ChEMBL document CHEMBL1157212, “Classification of estrogen receptor-beta ligands on the basis of their binding affinities using support vector machine and linear discriminant analysis” (Eur J Med Chem, 2008).

target: Estrogen receptor beta (Homo sapiens, UniProt Q92731)
Sequence (Q92731 whole entry): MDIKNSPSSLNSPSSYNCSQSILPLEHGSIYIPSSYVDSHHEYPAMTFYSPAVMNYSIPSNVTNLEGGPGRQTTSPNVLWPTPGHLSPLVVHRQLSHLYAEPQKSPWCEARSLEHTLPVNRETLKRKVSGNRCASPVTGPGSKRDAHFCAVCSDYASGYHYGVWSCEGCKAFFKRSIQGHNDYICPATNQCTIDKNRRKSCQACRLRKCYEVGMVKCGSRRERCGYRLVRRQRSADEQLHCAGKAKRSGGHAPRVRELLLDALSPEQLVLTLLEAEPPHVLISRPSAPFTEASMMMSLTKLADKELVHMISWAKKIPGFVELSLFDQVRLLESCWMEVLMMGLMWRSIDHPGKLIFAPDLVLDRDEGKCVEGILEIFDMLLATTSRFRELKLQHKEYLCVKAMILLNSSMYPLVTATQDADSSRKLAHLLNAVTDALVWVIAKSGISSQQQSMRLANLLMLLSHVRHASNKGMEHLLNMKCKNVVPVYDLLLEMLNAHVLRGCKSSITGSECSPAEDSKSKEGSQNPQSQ
Description: Binding affinity to ERbeta

IC50 [nM]	Compound
142	C/C=C/c1cc(O)cc2nc(-c3ccc(O)cc3)oc12
5000	O=C(O)c1cc(O)cc2nc(-c3ccc(O)cc3)oc12
1.4	Oc1ccc(-c2nc3cc(O)cc(Br)c3o2)c(C(F)(F)F)c1
